Patent publication US11452730B2, “Applications of desogestrel in the preparation of breast cancer ER-negative Ah receptor-positive products” (SHANGHAI JIAO TONG UNIVERSITY, priority 2015, dated 2022)
Like-named read-outs stand apart in the source and are kept apart here.

Legend:
Format in all cases: cell-based
[1] = test system: LoVo colon cancer cells; experiment: CellTiter-Glo luminescent cell viability assay, LoVo 96-well drug screening plate; details: Homo sapiens, 72 hours
Method: (§1) In example 1, CELLTITER-GLO was used to test desogestrel for colon cancer RKO cells, LoVo cells, and MDA-MB-468 ductal breast cancer cells were handled as described above, and RKO 96-well cell culture plates, 96-well LoVo cell culture plates, and 96-well MDA-MB-468 cell culture plates were obtained, respectively. The complete medium for LoVo cells was MEM (a live product), Cat #10370021, with a cells/well density of 8000. a) DMSO was used to dilute the analyte desogestrel to 20 mM for use. b) 79 μL of the 20 mM analyte prepared in step a) was added to the first well in the first row of the dilution plate, and then 54 μL of DMSO solution was added to the second through ninth wells of the first row. 25 μL of solution was aspirated from the first to the second well, and after mixing well 25 μL of solution was aspirated from the second to the third well, and this was repeated until the 9th well in order to ensure that 3.16 dilution of the medication would be carried out one-by-one. b) 95 μl of cell-specific complete medium was added to the working plate, each medication to 9 wells. […] The final concentrations (μM) of the analyte drug in wells 2-10 in FIG. 1 are, in order: 100, 31.64557, 10.01442, 3.16912, 1.002886, 0.317369, 0.100433, 0.031783, 0.010058; a) Before testing, the RKO 96-well drug screening plate and the LoVo 96-well drug screen plate described in 3 above were stabilized to room temperature for 20-30 minutes. c) 100 μl of CellTiter-Glo reagent (prepared as described in 1 above) was added to all drug screening plates and mixed evenly. d) It was thoroughly oscillated in a 96-well microplate oscillator for 2 minutes to allow the cells to undergo full lysis. e) It was stored away from light at room temperature for 15 minutes before carrying out luminescent signal detection to ensure signal stability. f) An EnSpire multi-function plate reader was used at 570 nm to read the luminescent signals.

[2] = test system: RKO colon cancer cells; experiment: CellTiter-Glo luminescent cell viability assay, RKO 96-well drug screening plate; details: 72 hours
Method: as §1, with “for RKO” for “for LoVo”, “was DMEM” for “was MEM”, “Cat #11995081,” for “Cat #10370021,”, “of 12000.” for “of 8000.”

[3] = test system: BT-474 ductal breast cancer cells; experiment: CellTiter-Glo luminescent cell viability assay, BT-474 cells (same method); details: Homo sapiens, Table 1
Excerpt: Ductal breast cancer cells BT-474, complete medium basis of RPMI-1640 (a live product), Cat #A1049101, with a cells/well density of 4,000. The same method was used to test desogestrel's action on the IC50 value of BT-474 ductal breast cancer cells; results are shown in Table 1.

[4] = test system: ER-negative Ah receptor-positive MDA-MB-468 breast cancer cells; experiment: CellTiter-Glo luminescent cell viability assay, MDA-MB-468 96-well drug screening plate; details: Homo sapiens, 72 hours
Method: as §1, with “RKO” for “In example 1, CELLTITER-GLO was used to test desogestrel for colon cancer RKO”, “for ER-negative Ah receptor-positive MDA-MB-468 breast cancer” for “for LoVo”, “was Leibovitz's L-15” for “was MEM”, “Cat #11415064,” for “Cat #10370021,”, “of 12000.” for “of 8000.”, “0.010058;” for “0.010058; a) Before testing, the RKO 96-well drug screening plate and the LoVo 96-well drug screen plate described in 3 above were stabilized to room temperature for 20-30 minutes.”

EC50 ([1]; FIG. 3, colon cancer, LoVo 96-well drug screening plate): 26.3 µM
IC50 ([1]; FIG. 3, colon cancer, LoVo 96-well drug screening plate, read-out: IC50): 26.2 µM
IC50 ([1]; LoVo cells, Table 1, read-out: IC50 value): 32.1 µM
EC50 ([2]; FIG. 2, colon cancer, RKO 96-well drug screening plate): 136 µM
IC50 ([2]; FIG. 2, colon cancer, RKO 96-well drug screening plate, read-out: IC50): 32.1 µM
IC50 ([2]; Homo sapiens, RKO cells, Table 1, read-out: IC50 value): 26.2 µM
IC50 [3]: ≥ 100 µM
EC50 ([4]; FIG. 4, ER-negative Ah receptor-positive breast cancer, MDA-MB-468 plate): 11.3 µM
IC50 ([4]; FIG. 4, ER-negative Ah receptor-positive breast cancer, MDA-MB-468 plate, read-out: IC50): 12.5 µM
IC50 ([4]; MDA-MB-468 cells, Table 1, read-out: IC50 value): 12.5 µM
SMILES: C#C[C@]1(O)CC[C@H]2[C@@H]3CCC4=CCCC[C@@H]4[C@H]3C(=C)C[C@@]21CC [desogestrel]
